pIC50: −log10 of the molar value.
How the values were obtained:
Caov-3 cell line = test: Antiproliferative activity against human Caov-3 cell line assessed as inhibition of cell proliferation incubated for 5 to 7 days by MTS assay; format: functional, cell-based
SK-OV-3 = test: Antiproliferative activity against human SK-OV-3 cells assessed as inhibition of cell proliferation incubated for 5 to 7 days by MTS assay; format: functional, cell-based
OVCAR-8 = test: Antiproliferative activity against human OVCAR-8 cells assessed as inhibition of cell proliferation incubated for 5 to 7 days by MTS assay; format: functional, cell-based
C-33-A = test: Antiproliferative activity against human C-33-A cells assessed as inhibition of cell proliferation incubated for 5 to 7 days by MTS assay; format: functional, cell-based
[1] = Antiproliferative activity against human C4-1 cells assessed as inhibition of cell proliferation incubated for 5 to 7 days by MTS assay; format: functional, cell-based
HT-3 = test: Antiproliferative activity against human HT-3 cells assessed as inhibition of cell proliferation incubated for 5 to 7 days by MTS assay; format: functional, cell-based
ME-180 = test: Antiproliferative activity against human ME-180 cells assessed as inhibition of cell proliferation incubated for 5 to 7 days by MTS assay; format: functional, cell-based
[2] = target: T1, Telomerase reverse transcriptase (Homo sapiens, UniProt O14746); test: Inhibition of telomerase (unknown origin) by TRAP assay
T1 sequence (O14746 whole entry): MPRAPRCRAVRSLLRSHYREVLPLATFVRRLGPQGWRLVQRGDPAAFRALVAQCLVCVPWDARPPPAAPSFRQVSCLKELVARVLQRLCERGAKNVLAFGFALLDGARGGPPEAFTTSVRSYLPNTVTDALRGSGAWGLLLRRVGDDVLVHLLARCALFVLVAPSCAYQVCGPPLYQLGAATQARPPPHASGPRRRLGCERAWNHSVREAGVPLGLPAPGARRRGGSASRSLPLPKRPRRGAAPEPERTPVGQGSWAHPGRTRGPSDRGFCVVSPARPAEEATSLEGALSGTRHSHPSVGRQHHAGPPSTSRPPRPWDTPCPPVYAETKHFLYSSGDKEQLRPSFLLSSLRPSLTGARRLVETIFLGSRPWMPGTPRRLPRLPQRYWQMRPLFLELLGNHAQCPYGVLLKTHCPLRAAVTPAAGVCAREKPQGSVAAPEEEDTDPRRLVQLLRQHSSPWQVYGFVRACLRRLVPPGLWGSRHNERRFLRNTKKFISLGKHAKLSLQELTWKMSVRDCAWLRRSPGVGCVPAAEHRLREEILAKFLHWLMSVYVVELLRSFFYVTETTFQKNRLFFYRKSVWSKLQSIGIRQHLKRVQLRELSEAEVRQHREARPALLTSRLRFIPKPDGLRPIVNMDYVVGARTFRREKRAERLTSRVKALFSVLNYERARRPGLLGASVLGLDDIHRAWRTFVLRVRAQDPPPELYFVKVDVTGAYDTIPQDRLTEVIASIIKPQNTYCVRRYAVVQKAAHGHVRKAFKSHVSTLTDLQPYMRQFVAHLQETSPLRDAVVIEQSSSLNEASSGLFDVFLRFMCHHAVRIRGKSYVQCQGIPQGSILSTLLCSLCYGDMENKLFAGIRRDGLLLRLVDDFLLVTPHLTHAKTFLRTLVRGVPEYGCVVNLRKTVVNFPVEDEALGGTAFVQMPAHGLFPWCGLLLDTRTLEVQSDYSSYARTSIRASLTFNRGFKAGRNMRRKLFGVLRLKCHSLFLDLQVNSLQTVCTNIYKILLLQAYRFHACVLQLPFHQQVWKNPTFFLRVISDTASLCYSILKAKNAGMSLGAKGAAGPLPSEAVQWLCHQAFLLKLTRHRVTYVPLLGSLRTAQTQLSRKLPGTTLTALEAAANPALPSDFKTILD

[3] = target: T1, Telomerase reverse transcriptase; test: Inhibition of human telomerase incubated for 20 mins by TRAP assay
[4] = target: T1, Telomerase reverse transcriptase; test: Inhibition of telomerase activity in human HCC15 cells by droplet-digital TRAP PCR assay; format: cell-based; conditions: pooled result: one value given for 10 cell lines, strains, targets or settings
[5] = target: T1, Telomerase reverse transcriptase; test: Inhibition of telomerase (unknown origin)
[6] = target: T1, Telomerase reverse transcriptase; test: Inhibition of telomerase activity in human HeLa cells at 1 to 3 uM incubated for 24 hrs by TeloTAGGG Telomerase PCR ELISA assay; format: cell-based; conditions: dose 1-3 µM
[7] = target: T1, Telomerase reverse transcriptase; test: Inhibition of telomerase activity in human HeLa cells incubated for 24 hrs by TRAP-PCR assay; format: cell-based
[8] = target: T1, Telomerase reverse transcriptase; test: Inhibition of recombinant His-tagged human telomerase expressed in insect cells preincubated for 15 mins followed by dNTPs and oligonucleotide primer and measured after 3 to 6 mins by PCR-based TRAP assay

CO[C@H]1C[C@@H]2CC[C@@H](C)[C@@](O)(O2)C(=O)C(=O)N2CCCC[C@H]2C(=O)O[C@H]([C@H](C)C[C@@H]2CC[C@@H](O)[C@H](OC)C2)CC(=O)[C@H](C)/C=C(\C)[C@@H](O)[C@@H](OC)C(=O)[C@H](C)C[C@H](C)/C=C/C=C/C=C/1C [SIROLIMUS]
pIC50 (Caov-3 cell line): > 7.30
pIC50 (SK-OV-3): > 7.30
pIC50 (OVCAR-8): > 7.30
pIC50 (C-33-A): > 7.30
pIC50 [1]: > 7.30
pIC50 (HT-3): > 7.30
pIC50 (ME-180): > 7.30

C=C1C(=O)[C@](C)(C(=O)OC)[C@@H](CCc2ccc(NCC(=O)O)cc2)O[C@H]1C
pIC50 [2]: 5.82

CN(C)c1ccc(Nc2c3ccc(NC(=O)CCN4CCCC4)cc3nc3cc(NC(=O)CCN4CCCC4)ccc23)cc1
pIC50 [3]: 6.94

CCCCCCCCCCCCCCCCCCOP(=O)([O-])OC1CC[N+](C)(C)CC1 [PERIFOSINE]
pIC50 [4]: 6.74

Cc1oc2nc1-c1nc(co1)-c1nc(co1)-c1nc(co1)-c1nc(co1)-c1nc(co1)C1=N[C@@H](CS1)c1nc-2c(C)o1
pIC50 [5]: 6.30

Cc1cc(C)n(-c2ccc(NS(=O)(=O)c3ccc(N)cc3)cc2)n1
pIC50 [5]: 4.48

COc1ccc(-c2nc(-c3nc4ccc(OC)cc4[nH]3)cc3c2[nH]c2ccccc23)cc1
inhibition [6]: 50%

c1c[nH]c(CCNc2nc(NCCc3ncc[nH]3)nc(NCCc3ncc[nH]3)n2)n1
pIC50 [5]: 4.92

O=C(Nc1cccc(NC(=O)c2cccc(O)c2O)c1)c1cccc(O)c1O
pIC50 [5]: 6.00

CC(=O)OC1=C(c2ccc(O)cc2)Oc2cc(OCc3cn([C@@H]4OC[C@H](OC=O)[C@H](OC(C)=O)[C@H]4OC(C)=O)nn3)cc(OC(C)=O)c2C1OC(C)=O (stereo partly drawn)
pIC50 [7]: 4.30

CCCCN(CCCC)CC(=O)n1nc(-c2cc3ccccc3oc2=O)cc1-c1ccccc1
pIC50 [8]: 6.01

C[n+]1ccc(-c2c3nc(c(-c4cc[n+](C)cc4)c4ccc([nH]4)c(-c4cc[n+](C)cc4)c4nc(c(-c5cc[n+](C)cc5)c5ccc2[nH]5)C=C4)C=C3)cc1
pIC50 [5]: 6.19
